Where two headings read alike, the source gives them in different places. Marks after values point to notes of the source that are not given here.
What was measured:
[1] = in vivo; cited from earlier work
[2] = in vivo; cited from earlier work; remark: listed apart in the source
[3] = system: AAMU-Ab; assay: Competitive antigen ELISA, cross-reactivity of AAMU-Ab; assay type: binding, rabbit; settings: 0 = absence of inhibition or inhibition no higher than 40% at 5 × 10^−3 M
Description: (§1) Buffers and water without additives are filtered through millipore filters and kept for 1 week. BSA, antibodies, Tween™ 20 and horse radish peroxidase conjugates are added to these buffers and water just prior to use. Urine samples are usually collected 4 hours after drinking a cup of coffee (instant or brewed with approximately 100 mg of caffeine per cup) and stored at −80° C. The urine samples are diluted 10 times with sodium phosphate buffer (620 mosm, pH 7.50) and are subsequently diluted with water to give concentrations of AAMU and 1X no higher than 3×10^−6 M in the ELISA. All the pipettings are done with an eight-channel pipette, except those of the antibody and sample solutions. Starting with the last well, 100 μL of a carbonate buffer (100 mM, pH 9.6) containing 2.5 μg mL^−1 antibodies are added to each well. After 90 min. at room temperature, the wells are washed three times with […] of TPB: isotonic sodium phosphate buffer (310 mosm, pH 7.50) containing 0.05% Tween™ 20.
(§2) After the initial wash, unoccupied sites are blocked by incubation for 90 min. at room temperature with 100 μL TBP containing 3% BSA. The wells are washed four times with 100 μL TPB. […] The microplate is gently shaken with an orbital shaker at room temperature for 3-4 hours. The wells are washed three times with 100 μL TPB containing 1% BSA and three times with water containing 0.05% Tween™ 20. To the washed plate is added 150 μL of a substrate buffer composed of citric acid (25 mM) and sodium phosphate dibasic buffer (50 mM, pH 5.0) containing 0.06% hydrogen peroxide and 0.04% o-phenylenediamine hydrochloride.
(§3) Buffers and water without additives were filtered through millipore filters and kept for 1 week. BSA, antibodies, Tween™ 20 and horse radish peroxidase conjugates were added to these buffers and water just prior to use. Urine samples were usually collected 4 hours after drinking a cup of coffee (instant or brewed with approximately 100 mg of caffeine per cup) and stored at −80° C. They were diluted 10 times with sodium phosphate buffer (620 mosm, pH 7.50) and were subsequently diluted with water to give concentrations of AAMU and 1X no higher than 3×10^−6 M in the ELISA. All the pipettings were done with an eight-channel pipette, except those of the antibody and sample solutions. Starting with the last well, 100 μL of a carbonate buffer (100 mM, pH 9.6) containing 2.5 μg mL^−1 antibodies was pipetted. After 90 min. at room temperature, the wells were washed three times with 100 μL of TPB: isotonic sodium phosphate buffer (310 mosm, pH 7.50) containing 0.05% Tween™ 20.
(§4) After the initial wash, unoccupied sites were blocked by incubation for 90 min. at room temperature with 100 μL TBP containing 3% BSA. The wells were washed four times with 100 μL TPB. […] The microplate was gently shaken with an orbital shaker at room temperature for 3-4 hours. The wells were washed three times with 100 μL with TPB containing 1% BSA and three times with water containing 0.05% Tween™ 20. To the washed plate was added 150 μL of a substrate buffer composed of citric acid (25 mM) and sodium phosphate dibasic buffer (50 mM, pH 5.0) containing 0.06% hydrogen peroxide and 0.04% o-phenylenediamine hydrochloride. After 20 min. at room temperature with shaking, the reaction was stopped with 50 μL of 2.5 N HCl.
(§5) The cross reactivities of AAMU-Ab and 1X-Ab were tested using a wide variety of caffeine metabolites and structural analogs (Table 3 below).

[4] = system: 1X-Ab; assay: Competitive antigen ELISA, cross-reactivity of 1X-Ab; assay type: binding, rabbit; settings: 0 = absence of inhibition or inhibition no higher than 40% at 5 × 10^−3 M
Description: as §1, §2, §3, §4, §5

[5] = system: HIV isolates; settings: HIV isolates from individuals during ritonavir therapy vs matched baseline isolates; cited from earlier work
[6] = co-administration with ritonavir; cited from earlier work
[7] = cited from earlier work

CC(C)[C@H](NC(=O)N(C)Cc1csc(C(C)(C)O)n1)C(=O)N[C@@H](Cc1ccccc1)C[C@H](O)[C@H](Cc1ccccc1)NC(=O)OCc1cncs1 [Compound M-2]
concentrations of metabolite in plasma [1]: low

Cc1cn([C@H]2C[C@H](N=[N+]=[N-])[C@@H](CO)O2)c(=O)[nH]c1=O [ZDV, zidovudine]
Adverse event: Abdominal Pain [2]: 5.9% | Adverse event: Anorexia [2]: 4.2% | Adverse event: Anxiety [2]: 0.8% | Adverse event: Arthralgia [2]: 0.0% | Adverse event: Asthenia [2]: 11.8% | Adverse event: Circumoral Paresthesia [2]: 0.0% | Adverse event: Confusion [2]: 0.0% | Adverse event: Constipation [2]: 0.8% | Adverse event: Depression [2]: 2.5% | Adverse event: Diarrhea [2]: 2.5% | Adverse event: Dizziness [2]: 3.4% | Adverse event: Dyspepsia [2]: 1.7% | Adverse event: Fecal Incontinence [2]: 0.0% | Adverse event: Fever [2]: 1.7% | Adverse event: Flatulence [2]: 1.7% | Adverse event: Headache [2]: 6.7% | Adverse event: Insomnia [2]: 0.8% | Adverse event: Local Throat Irritation [2]: 0.8% | Adverse event: Malaise [2]: 3.4% | Adverse event: Myalgia [2]: 0.8% | Adverse event: Nausea [2]: 26.1% | Adverse event: Nocturia [2]: 0.0% | Adverse event: Pain (unspecified) [2]: 0.8% | Adverse event: Paresthesia [2]: 0.0% | Adverse event: Peripheral Paresthesia [2]: 0.8% | Adverse event: Pharyngitis [2]: 0.0% | Adverse event: Rash [2]: 0.8% | Adverse event: Somnolence [2]: 0.0% | Adverse event: Sweating [2]: 1.7% | Adverse event: Syncope [2]: 0.8% | Adverse event: Taste Perversion [2]: 8.4% | Adverse event: Thinking Abnormal [2]: 0.8% | Adverse event: Vasodilation [2]: 0.8% | Adverse event: Vomiting [2]: 12.6% | Adverse event: Weight Loss [2]: 0.0%

Cc1nc2[nH]c(=O)[nH]c(=O)c2[nH]1 [8-Methyl Xanthine]
% Cross-Reaction AAMU-Ab [3]: 0% | % Cross-Reaction 1X-Ab [4]: 0%

O=c1[nH]c(=O)c2[nH]c(=O)[nH]c2[nH]1 [Uric acid]
% Cross-Reaction AAMU-Ab [3]: 0% | % Cross-Reaction 1X-Ab [4]: 0%

Cn1c(=O)[nH]c2[nH]c(=O)[nH]c2c1=O [1-Methyluric acid]
% Cross-Reaction AAMU-Ab [3]: 0% | % Cross-Reaction 1X-Ab [4]: 11%

CC(=O)Nc1c(N)n(C)c(=O)n(C)c1=O [5-Acetamino-6-amino-1,3-dimethyluracil]
% Cross-Reaction AAMU-Ab [3]: 0% | % Cross-Reaction 1X-Ab [4]: 0%

CC(C)(C)NC(=O)[C@@H]1CN(Cc2cccnc2)CCN1C[C@@H](O)C[C@@H](Cc1ccccc1)C(=O)N[C@H]1c2ccccc2C[C@H]1O [Indinavir, indinavir]
decrease in susceptibility in vitro [5]: 8 fold

CCOC(=O)C1(c2ccccc2)CCNCC1 [normeperidine]
Effect (on drug concentration) [6]: up normeperidine

COc1ccc2c(c1)[C@]13CCCC[C@@H]1[C@H](C2)N(C)CC3 [Dextromethorphan]
mean performance+/−SE ([7]; EMs (extensive metabolizers)): 95+/−0.5% | mean performance+/−SE ([7]; PMs (poor metabolizers)): 86+/−6%

Cn1c(=O)[nH]c(=O)c2[nH]cnc21 [3-Methyl Xanthine]
% Cross-Reaction AAMU-Ab [3]: 0% | % Cross-Reaction 1X-Ab [4]: 0%

CCC(=O)C(CC(C)N(C)C)(c1ccccc1)c1ccccc1 (stereo not shown) [Methadone]
Effect (on drug concentration) [6]: down methadone

O=c1cc[nH]c(=O)[nH]1 [Uracil]
% Cross-Reaction AAMU-Ab [3]: 0% | % Cross-Reaction 1X-Ab [4]: 0%

Nc1nc2nc[nH]c2c(=O)[nH]1 [Guanine]
% Cross-Reaction AAMU-Ab [3]: 0% | % Cross-Reaction 1X-Ab [4]: 0%

Cn1c(=O)c2[nH]cnc2n(C)c1=O [1,3-Dimethyl Xanthine (Theophylline), 1,3-Dimethyl Xanthine]
Effect (on drug concentration) [6]: down theophylline | % Cross-Reaction AAMU-Ab [3]: 0% | % Cross-Reaction 1X-Ab [4]: 0.2%

Cn1c(=O)c2c(ncn2C)n(C)c1=O [1,3,7-Trimethyl Xanthine (Caffeine), 1,3,7-Trimethyl Xanthine]
% Cross-Reaction AAMU-Ab [3]: 0% | % Cross-Reaction 1X-Ab [4]: 0%

CCOC(=O)C1(c2ccccc2)CCN(C)CC1 [Meperidine]
Effect (on drug concentration) [6]: down meperidine

CC(C)(C)NC(=O)[C@@H]1C[C@@H]2CCCC[C@@H]2CN1C[C@@H](O)[C@H](Cc1ccccc1)NC(=O)[C@H](CC(N)=O)NC(=O)c1ccc2ccccc2n1 [Saquinavir, saquinavir]
decrease in susceptibility in vitro [5]: did not demonstrate a concordant decrease in susceptibility

Cn1cnc2[nH]c(=O)[nH]c(=O)c21 [7-Methyl Xanthine]
% Cross-Reaction AAMU-Ab [3]: 0% | % Cross-Reaction 1X-Ab [4]: 0%

Cn1c(=O)[nH]c2ncn(C)c2c1=O [1,7-Dimethyl Xanthine (Paraxanthine), 1,7-Dimethyl Xanthine]
% Cross-Reaction AAMU-Ab [3]: 0% | % Cross-Reaction 1X-Ab [4]: 0.5%

CC(=O)Nc1c(N)n(C)c(=O)[nH]c1=O [5-Acetamino-6-amino-1-methyluracil]
% Cross-Reaction AAMU-Ab [3]: 100% | % Cross-Reaction 1X-Ab [4]: 0%

Cn1c(=O)[nH]c2[nH]c(=O)n(C)c2c1=O [1,7-Dimethyluric acid]
% Cross-Reaction AAMU-Ab [3]: 0% | % Cross-Reaction 1X-Ab [4]: 0%

CC(=O)N1CCN(c2ccc(OCC3COC(Cn4ccnc4)(c4ccc(Cl)cc4Cl)O3)cc2)CC1 (stereo not shown) [Ketoconazole]
Effect (on drug concentration) [6]: up ketoconazole

O=c1[nH]c(=O)c2[nH]cnc2[nH]1 [Xanthine]
% Cross-Reaction AAMU-Ab [3]: 0^a % | % Cross-Reaction 1X-Ab [4]: 0%

CC(C)CN(C[C@@H](O)[C@H](Cc1ccccc1)NC(=O)O[C@H]1CCOC1)S(=O)(=O)c1ccc(N)cc1 [amprenavir]
decrease in susceptibility in vitro [5]: none

O=c1[nH]cnc2nc[nH]c12 [Hypoxanthine]
% Cross-Reaction AAMU-Ab [3]: 0% | % Cross-Reaction 1X-Ab [4]: 0%

Cn1cnc2c1c(=O)[nH]c(=O)n2C [3,7-Dimethyl Xanthine (Theobromine), 3,7-Dimethyl Xanthine]
% Cross-Reaction AAMU-Ab [3]: 0% | % Cross-Reaction 1X-Ab [4]: 0%

CC(=O)Nc1c(N)[nH]c(=O)[nH]c1=O [5-Acetamino-6-amino-uracil]
% Cross-Reaction AAMU-Ab [3]: 0.6% | % Cross-Reaction 1X-Ab [4]: 0%

Cn1c(=O)[nH]c2nc[nH]c2c1=O [1-Methyl Xanthine (1X), 1-Methyl Xanthine]
% Cross-Reaction AAMU-Ab [3]: 0% | % Cross-Reaction 1X-Ab [4]: 100%
